Measured values published in US20250340574A1, “MODULATORS OF CYSTIC FIBROSIS TRANSMEMBRANE CONDUCTANCE REGULATOR” (Vertex Pharmaceuticals Incorporated, priority 2022, published 2025).
Where two headings read alike, the source gives them in different places.

Legend:
[1] = target: T1, CFTR (F508del/MF-HBE cells) (Homo sapiens, UniProt P13569, DEL508-508); assay: Ussing chamber assay of CFTR-mediated short-circuit currents, Assay D (single concentration of 1 μM); assay type: cell-based; details: with 44 nM potentiator and 18 μM Tezacaftor, 20% human serum; for D activity at 1 μM (%): 18-24 hours
T1 construct: human bronchial epithelial (HBE) cells derived from CF subjects heterozygous for F508del and a minimal function CFTR mutation (F508del/MF-HBE); endogenous in cells; host or cells: Primary human bronchial epithelial cells from CF subjects (F508del/MF genotype), differentiated at an air-liquid interface
Summary of the method: (§1)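 Short-circuit current was recorded at 37 °C under voltage clamp (0 mV) with amiloride 30 μM apically, forskolin 20 μM activation, then BPO/GlyH-101/inh-172 (20 μM each) to isolate CFTR current. Before recording, corrector exposure lasted 18–24 h with 18 μM tezacaftor, 20% human serum, and 33 nM (dose–response) or 44 nM (1 μM fixed) potentiator, maintained throughout.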

[2] = target: T1, CFTR (F508del/MF-HBE cells); assay: Ussing chamber assay of CFTR-mediated short-circuit currents, Assay C (0.026 μM to 25 μM, 6 concentrations); assay type: cell-based; details: with 33 nM potentiator and 18 μM Tezacaftor, 20% human serum; for Emax: read-out: C Max activity (%)
Summary of the method: as §1

T1 sequence (P13569 with tags, fused parts or gaps DEL508-508): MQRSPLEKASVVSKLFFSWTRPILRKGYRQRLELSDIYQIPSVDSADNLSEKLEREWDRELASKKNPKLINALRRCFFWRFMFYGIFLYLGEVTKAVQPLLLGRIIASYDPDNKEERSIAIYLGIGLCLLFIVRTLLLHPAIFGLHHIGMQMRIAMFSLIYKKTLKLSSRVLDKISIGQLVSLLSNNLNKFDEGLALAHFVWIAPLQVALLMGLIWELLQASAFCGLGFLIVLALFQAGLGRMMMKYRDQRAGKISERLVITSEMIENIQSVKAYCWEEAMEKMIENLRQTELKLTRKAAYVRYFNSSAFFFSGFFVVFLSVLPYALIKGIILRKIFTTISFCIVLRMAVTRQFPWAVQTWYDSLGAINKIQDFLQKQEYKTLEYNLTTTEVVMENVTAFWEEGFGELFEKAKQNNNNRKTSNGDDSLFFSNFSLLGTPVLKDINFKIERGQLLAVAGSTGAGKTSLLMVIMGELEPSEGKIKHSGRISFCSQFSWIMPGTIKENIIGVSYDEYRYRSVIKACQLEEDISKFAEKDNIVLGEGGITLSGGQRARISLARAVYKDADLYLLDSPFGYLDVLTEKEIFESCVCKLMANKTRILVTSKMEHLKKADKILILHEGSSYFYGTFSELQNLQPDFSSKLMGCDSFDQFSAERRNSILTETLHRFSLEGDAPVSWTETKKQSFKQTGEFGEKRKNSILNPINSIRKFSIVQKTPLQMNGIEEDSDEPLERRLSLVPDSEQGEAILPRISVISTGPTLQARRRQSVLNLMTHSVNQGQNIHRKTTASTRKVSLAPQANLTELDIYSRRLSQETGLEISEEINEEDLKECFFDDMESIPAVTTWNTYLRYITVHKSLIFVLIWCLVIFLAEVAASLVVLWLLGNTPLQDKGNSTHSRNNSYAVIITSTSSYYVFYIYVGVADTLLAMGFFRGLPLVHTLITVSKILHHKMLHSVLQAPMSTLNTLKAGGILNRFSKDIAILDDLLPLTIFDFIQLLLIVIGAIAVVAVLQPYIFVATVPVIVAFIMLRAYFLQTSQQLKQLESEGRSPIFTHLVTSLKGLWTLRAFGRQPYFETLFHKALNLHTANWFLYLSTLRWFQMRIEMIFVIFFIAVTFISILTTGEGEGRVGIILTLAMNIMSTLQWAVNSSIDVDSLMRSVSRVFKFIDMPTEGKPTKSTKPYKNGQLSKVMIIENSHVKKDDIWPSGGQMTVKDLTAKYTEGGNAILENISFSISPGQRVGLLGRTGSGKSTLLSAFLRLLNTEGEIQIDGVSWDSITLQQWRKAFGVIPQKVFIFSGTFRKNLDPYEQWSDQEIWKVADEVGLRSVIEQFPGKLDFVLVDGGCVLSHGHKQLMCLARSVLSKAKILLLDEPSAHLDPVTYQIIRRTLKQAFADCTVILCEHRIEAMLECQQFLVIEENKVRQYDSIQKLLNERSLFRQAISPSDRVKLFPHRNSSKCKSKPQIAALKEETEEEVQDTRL

| SMILES | D activity at 1 μM (%) [1] | also measured |
| --- | --- | --- |
| Cc1cccc(C)c1-c1cc2nc(n1)NS(=O)(=O)c1cccc(c1)C(=O)N(Cc1cnc3oc(C(C)(C)C)cc3n1)[C@H](CC1(C)CCC1)CO2 [IV-5] |  | D act. at 1 μM (%) [1]: +++ (+++ is >60%); EC50 [2]: 1 to 3 µM; Emax [2]: > 60% |
| Cc1cccc(C)c1-c1cc2nc(n1)NS(=O)(=O)c1cccc(c1)C(=O)N(Cc1cnc3oc(C4CCOCC4)cc3n1)[C@H](CC1(C)CC1)CO2 [IV-27] |  | D act. at 1 μM (%) [1]: +++ (+++ is >60%); EC50 [2]: 3 to 30 µM; Emax [2]: > 60% |
| Cc1cccc(C)c1-c1cc2nc(n1)NS(=O)(=O)c1cccc(c1)C(=O)N(Cc1cnc3cc(C4CC4)n(C)c3n1)[C@@H](CCC1(C)CC1)CO2 (stereo in doubt) [Compound I-207] | +++ (+++ is >60%) | Emax ([2]; 18-24 hours): > 60%; EC50 [2]: < 1 µM |
| Cc1cccc(C)c1-c1nc2nc(c1C)OC[C@@H](CC13CC(C1)C3)N(Cc1cnc3oc(C4(C)CC4)cc3n1)C(=O)c1cccc(c1)S(=O)(=O)N2 [Compound I-231] | +++ (+++ is >60%) | Emax ([2]; 18-24 hours): > 60%; EC50 [2]: < 1 µM |
| Cc1cccc(CC(C)C)c1-c1nc2nc(c1C)OC[C@@H](CC1(C)CC1)N(Cc1cnc3cc(C(C)(C)C)n(C)c3n1)C(=O)c1cccc(c1)S(=O)(=O)N2 (atropisomer, axis not shown) [IV-44] |  | D act. at 1 μM (%) [1]: +++ (+++ is >60%); EC50 [2]: 1 to 3 µM; Emax [2]: > 60% |
| Cc1cccc(CC(C)C)c1-c1nc2nc(c1C)OC[C@@H](CC(C)(C)C)N(Cc1cnc3nc(C(C)C)n(C)c3n1)C(=O)c1cccc(c1)S(=O)(=O)N2 (atropisomer, axis not shown) [Compound I-171] | +++ (+++ is >60%) | Emax ([2]; 18-24 hours): > 60%; EC50 [2]: < 1 µM |
| Cc1cccc(C)c1-c1nc2nc(c1C)OC[C@@H](CC1(C)CC1)N(Cc1cnc3cc(C(C)(C)C)n(C)c3n1)C(=O)c1cccc(c1)S(=O)(=O)N2 [Compound I-222] | +++ (+++ is >60%) | Emax ([2]; 18-24 hours): > 60%; EC50 [2]: < 1 µM |
| Cc1cccc(C)c1-c1cc2nc(n1)NS(=O)(=O)c1cccc(c1)C(=O)N(Cc1cn3cccc(C(C)C)c3n1)[C@H](CC(C)(C)C)CO2 [III-5, (11R)-6-(2,6-dimethylphenyl)-11-(2,2-dimethylpropyl)-12-[(8-isopropylimidazo[1,2-a]pyridin-2-yl)methyl]-2,2-dioxo-9-oxa-2λ^6-thia-3,5,12,19-tetrazatricyclo[12.3.1.14,8]nonadeca-1(18),4(19),5,7,14,16-hexaen-13-one] | +++ (+++ is >60%) |  |
| COCCn1c(C(C)C)cc2ncc(CN3C(=O)c4cccc(c4)S(=O)(=O)Nc4nc(cc(-c5c(C)cccc5C)n4)OC[C@H]3CC(C)(C)C)nc21 [Compound I-117, (11R)-6-(2,6-dimethylphenyl)-11-(2,2-dimethylpropyl)-12-[[6-isopropyl-5-(2-methoxyethyl)pyrrolo[2,3-b]pyrazin-3-yl]methyl]-2,2-dioxo-9-oxa-2λ^6-thia-3,5,12,19-tetrazatricyclo[12.3.1.14,8]nonadeca-1(18),4(19),5,7,14,16-hexaen-13-one] | +++ (+++ is >60%) |  |
| Cc1cccc(C)c1-c1cc2nc(n1)NS(=O)(=O)c1cccc(c1)C(=O)N(Cc1nc3cc(C4(C)CC4)oc3cc1F)[C@H](CC13CC(C1)C3)CO2 [Compound I-233] | +++ (+++ is >60%) |  |
| Cc1cccc(C)c1-c1cc2nc(n1)NS(=O)(=O)c1cccc(c1)C(=O)N(Cc1cnc3oc(C(C)C)cc3n1)[C@H](C[C@@H]1CCCCO1)CO2 [Compound I-8] | +++ (+++ is >60%) |  |
| Cc1cccc(C)c1-c1cc2nc(n1)NS(=O)(=O)c1cccc(c1)C(=O)N(Cc1cnc3cn(C(C)C)nc3n1)[C@H](CC(C)(C)C)CO2 [Compound I-111] | +++ (+++ is >60%) |  |
| Cc1cccc(C)c1-c1nc2nc(c1C)OC[C@@H](CC(C)(C)C)N(Cc1ccc3oc(C4(C)CC4)cc3n1)C(=O)c1cccc(c1)S(=O)(=O)N2 [Compound I-235] | +++ (+++ is >60%) |  |
| Cc1cccc(C)c1-c1cc2nc(n1)NS(=O)(=O)c1cccc(c1)C(=O)N(Cc1ccc3oc(C4(C)CC4)cc3n1)[C@H](CC1(C)CC1)CO2 [Compound I-226] | +++ (+++ is >60%) |  |
| Cc1cccc(C)c1-c1nc2nc(c1C)OC[C@@H](COC(C)C)N(Cc1cnc3oc(C(C)(C)C)cc3n1)C(=O)c1cccc(c1)S(=O)(=O)N2 [Compound I-216] | +++ (+++ is >60%) |  |
| Cc1cccc(C)c1-c1nc2nc(c1C)OC[C@@H](CCC(C)(C)C)N(Cc1cnc3cc(C4CC4)n(C)c3n1)C(=O)c1cccc(c1)S(=O)(=O)N2 [Compound I-183] | +++ (+++ is >60%) |  |
| Cc1cccc(C)c1-c1nc2nc(c1C)OC[C@@H](CCC(C)(C)C)N(Cc1cnc3oc(C4CC4)cc3n1)C(=O)c1cccc(c1)S(=O)(=O)N2 [Compound I-184] | +++ (+++ is >60%) |  |
| Cc1cccc(C)c1-c1cc2nc(n1)NS(=O)(=O)c1cccc(c1)C(=O)N(Cc1cnc3cc(C4CC4)n(C)c3n1)[C@H](CC(C)(C)C)CO2 [Compound I-150] | +++ (+++ is >60%) |  |
| Cc1cccc(C)c1-c1cc2nc(n1)NS(=O)(=O)c1cccc(c1)C(=O)N(Cc1cnc3oc(C(C)C)cc3n1)[C@H](CC1CCCO1)CO2 (single isomer, unassigned) [Compound I-22] | +++ (+++ is >60%) |  |
| Cc1cccc(C)c1-c1cc2nc(n1)NS(=O)(=O)c1cccc(c1)C(=O)N(Cc1nn(C(C)C)c3ccccc13)[C@H](CC(C)(C)C)CO2 [III-17] | +++ (+++ is >60%) |  |
| Cc1cccc(C)c1-c1cc2nc(n1)NS(=O)(=O)c1cccc(c1)C(=O)N(Cc1cnc3oc(C(C)C)c(C(F)(F)F)c3n1)[C@H](CCC1(C)CC1)CO2 (stereo in doubt) [Compound I-127] | +++ (+++ is >60%) |  |
| Cc1cccc(C)c1-c1cc2nc(n1)NS(=O)(=O)c1cccc(c1)C(=O)N(Cc1ncc3oc(C4CC4)cc3n1)[C@H](COC(C)C)CO2 [Compound I-200] | +++ (+++ is >60%) |  |
| Cc1cccc(C)c1-c1cc2nc(n1)NS(=O)(=O)c1cccc(c1)C(=O)N(Cc1cnc3oc(C(C)C)cc3n1)[C@H](COC1CC1)CO2 [Compound I-109] | +++ (+++ is >60%) |  |
| Cc1cccc(C)c1-c1cc2nc(n1)NS(=O)(=O)c1cccc(c1)C(=O)N(Cc1nc3cc(C(C)(C)C)oc3cc1F)[C@H](COC(C)C)CO2 [Compound I-242] | +++ (+++ is >60%) |  |
| Cc1cccc(C)c1-c1cc2nc(n1)NS(=O)(=O)c1cccc(c1)C(=O)N(Cc1nc3cc(C(C)C)oc3cc1F)[C@H](COC(C)C)CO2 [Compound I-77] | +++ (+++ is >60%) |  |
| Cc1cccc(C)c1-c1cc2nc(n1)NS(=O)(=O)c1cccc(c1)C(=O)N(Cc1cnc3oc(C4CC4)cc3n1)[C@@H](CC1CC(C)(C)C1)CO2 (single isomer, unassigned) [Compound I-165, 12-[(6-Cyclopropylfuro[2,3-b]pyrazin-2-yl)methyl]-11-[(3,3-dimethylcyclobutyl)methyl]-6-(2,6-dimethylphenyl)-2,2-dioxo-9-oxa-2λ^6-thia-3,5,12,19-tetrazatricyclo[12.3.1.14,8]nonadeca-1(18),4(19),5,7,14,16-hexaen-13-one] | +++ (+++ is >60%) |  |
| Cc1cccc(C)c1-c1cc2nc(n1)NS(=O)(=O)c1cccc(c1)C(=O)N(Cc1cnc3oc(C(C)C)cc3n1)[C@H](CC(C)(C)C)CC2 [Compound I-173] | +++ (+++ is >60%) |  |
